Patent publication US20100062012A1, “Negative Genetic Regulation of Cancer Cell Renewal in Synergy with Notch- or Numb-Specific Immunotherapy” (priority 2007, published 2010)
Marks after values point to notes of the source that are not given here.

Legend:
MCF7 [1] = assay: MTT inhibition of proliferation; assay type: cell-based; settings: Homo sapiens, 72 h
Source text: (§1) Inhibition of proliferation of tumor cell lines by anticancer drugs.

MIA-PaCa-2 [2] = assay: MTT inhibition of proliferation; assay type: cell-based; settings: Homo sapiens; MIA-PaCa-2, MTT, 72 h
Source text: as §1

PANC-1 = assay: MTT inhibition of proliferation; assay type: cell-based; settings: Homo sapiens; PANC-1, MTT, 72 h
Source text: as §1

AsPC-1 = assay: MTT inhibition of proliferation; assay type: cell-based, human; settings: Homo sapiens, ASPC1, 72 h, AsPC-1, MTT, 72 h
Source text: as §1

SKOV-3 = assay: MTT inhibition of proliferation; assay type: cell-based, human; settings: Homo sapiens, SK-OV-3, 72 h, SKOV-3, MTT
Source text: as §1

MCF7 [3] = assay: Flow cytometry of CSt-C markers after culture with drugs; assay type: cell-based, human
Method: (§2) Flow cytometery analysis. All cells were cultured with Gem at 2×IC50 of gemcitabine for 10 days. Cultured cells (2×10^5) were washed in cold-PBS followed by blocking with 20 μL of 1 mg/mL of human IgG (Sigma, Saint Louis, Mo.) for 1 hour on ice. This step was necessary to inhibit non-specific binding of immunoglobulins during staining. Cells were then triple-stained with antibodies against ESA, CD44, and CD24. Analysis was performed with Becton Dickinson FACSCalibur and Cell Quest software (Becton Dickinson). Cells were gated on ESA+ population. Expression of CD24 and CD44 was examined in gated ESA+ cells as we described (26). The population of the ESA+, CD44hi and CD24low/− cells was calculated as percent of total cells and total ESA+ cells. All cell lines were also stained with a MIC-A/B and CD133, and analyzed as above.

MIA-PaCa-2 [4] = assay: as above; assay type: cell-based, human
Method: as §2

MIA-PaCa-2 [5] = assay: Flow cytometry of NKG2D ligands MIC-A/B in drug-resistant cells; assay type: cell-based, human; settings: MIA PaCa-2, FIG. 7A
Method: as §2
To address the hypothesis that drug-resistant cancer cells are more sensitive to cellular immune effectors, we quantified expression of NKG2D ligands, MIC-A and -B (58, 59). ESA^+ MIA-PaCa-2 cells were analyzed for MIC-A/B. MCF7 cells were analyzed with CD44, CD24 and MIC-A/B (FIG. 7B), because almost all MCF7 cells (95% and more) expressed ESA.

MIA-PaCa-2 [6] = assay: Flow cytometry of CSt-C markers after culture with drugs; assay type: cell-based, human; settings: starting from 3.0×10^6 Mia-PaCa-2 cells
MCF7 cells = assay: Stimulation of MCF7 / GEMRes MCF7 by DLL4; assay type: cell-based, human
Method: Stimulation of GEMRes MCF7 by DLL4. GEMRes MCF7 were obtained after culture with 0.3 uM GEM for 7 weeks. MCF7 were stimulated for 24 hrs, in medium containing estradiol, fibroblast growth factor in the presence or absence of DLL4, as described (40).

[7] = test system: CD8+ T cells (TAL) from ascites of HLA-A2+ ovarian cancer patients; assay: peptide-HLA-A2-IgG dimer staining of ovarian tumor associated lymphocytes (flow cytometry); assay type: cell-based, human; settings: for patients with activated CD8+ Perforin+ cells expressing TCR specific for the peptide: five ovarian cancer patients
Source text: Lymphocyte culture. Lymphocytes were isolated by Ficoll-gradient centrifugation from heparinized ascites from HLA-A2^+ ovarian cancer patients. After separation, we cultured lymphocytes with RPMI 1640 medium with 10% FCS and 300 IU of IL-2 (Biosource Camarillo, Calif.) for one week, as we described (23,24).
We identified cells expressing high concentrations/numbers of T cell receptors (TCRs) reactive with each peptide to evaluate the role of TCR density in CTL differentiation upon in vivo stimulation with the same ligands. The TCR^+ population which usually includes cells staining with antigen-tetramers/dimers with a mean fluorescence intensity (MFI) higher than 101, was divided in three populations, one staining with antigen-pulsed HLA-A2/IgG dimers (dimers) with a MFI (TCR) between 101 and 102, and other which stained with antigen-pulsed dimers with a MFI (TCR) between 102 and 103, and other which stained with antigen-pulsed dimers with a MFI (TCR) between 103 and 104. These populations were designated as TCR^lo, TCRmed, and […], respectively, as we described (26).
T cell: peptide-HLA-A2-lgG dimer interaction. Expression of TCRs specific for peptides Notch1 (1940-1948), Notch1 (2112-2120), Numb1 (87-95), Gli1 (580-588) and AESI (128-137) was determined using HLA-A2-IgG-dimmers (BD Bioscience Pharmingen). The peptide loaded dimers were prepared as we previously described (23). Staining of lymphocyte with dimers was performed as described previously (24,27,28).
The same cells were also stained for the expression of CD8 antigen and the presence of Perforin, (effector pore forming enzyme) using specific antibodies conjugated to distinct fluorochromes than the dimers: fluorescein isothiocianate (FITC), allophycocyanin (APC) and PE. Cells reacting with the corresponding peptide-loaded dimers are designated as Notch1-1940-TCR^+, Notch1-2112-TCR^+, Numb1-87-TCR^+, and […] cells, respectively. Cells reacted with control HLA-A2-IgG dimers not loaded with peptide are designated as dNP-TCR^+ cells.

[8] = target: Notch receptor on MCF7 cells (human); assay: cell-based or functional assay
[9] = MIA-PaCa-2 after culture with drug
[10] = Patient 1, TCR-density High, TAL one week in 300 IU IL-2

Chain of recombinant human Delta-like protein 4 (Q9NR61 27-524 limits assumed, stated change not applied): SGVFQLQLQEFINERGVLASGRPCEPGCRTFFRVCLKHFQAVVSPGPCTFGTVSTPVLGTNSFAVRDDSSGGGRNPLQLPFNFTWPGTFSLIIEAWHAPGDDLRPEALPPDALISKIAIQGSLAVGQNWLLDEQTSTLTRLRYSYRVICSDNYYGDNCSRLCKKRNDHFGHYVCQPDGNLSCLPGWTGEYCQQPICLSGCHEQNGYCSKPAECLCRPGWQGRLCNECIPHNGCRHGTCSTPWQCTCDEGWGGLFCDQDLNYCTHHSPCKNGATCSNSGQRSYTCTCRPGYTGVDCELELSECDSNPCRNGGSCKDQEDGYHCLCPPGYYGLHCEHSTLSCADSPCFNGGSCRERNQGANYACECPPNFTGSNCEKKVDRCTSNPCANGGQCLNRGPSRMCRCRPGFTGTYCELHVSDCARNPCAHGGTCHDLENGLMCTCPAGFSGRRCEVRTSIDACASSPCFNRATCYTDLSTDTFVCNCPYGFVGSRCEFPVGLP

Molecule | % TCR+ cells for HLA-A2: peptide [7, 10] | % TCR+ cells for HLA-A2: peptide ([7]; Patient 1, TCR-density Low) | % TCR+ cells for HLA-A2: peptide ([7]; Patient 1, TCR-density Med) | % TCR+ cells for HLA-A2: peptide ([7]; Patient 2, TCR-density High) | % TCR+ cells for HLA-A2: peptide ([7]; Patient 2, TCR-density Low) | % TCR+ cells for HLA-A2: peptide ([7]; Patient 2, TCR-density Med) | % TCR+ cells for HLA-A2: peptide ([7]; Patient 3, TCR-density High) | % TCR+ cells for HLA-A2: peptide ([7]; Patient 3, TCR-density Low) | % TCR+ cells for HLA-A2: peptide ([7]; Patient 3, TCR-density Med) | % TCR+ cells for HLA-A2: peptide ([7]; Patient 4, TCR-density High) | % TCR+ cells for HLA-A2: peptide ([7]; Patient 4, TCR-density Low) | % TCR+ cells for HLA-A2: peptide ([7]; Patient 4, TCR-density Med) | % TCR+ cells for HLA-A2: peptide ([7]; Patient 5, TCR-density High) | % TCR+ cells for HLA-A2: peptide ([7]; Patient 5, TCR-density Low) | % TCR+ cells for HLA-A2: peptide ([7]; Patient 5, TCR-density Med) | also measured
O=c1[nH]cc(F)c(=O)[nH]1 [5-FU, 5-fluorouracil] | – | – | – | – | – | – | – | – | – | – | – | – | – | – | – | IC50 (MCF7 [1]): 1.3 µM; IC50 (MIA-PaCa-2 [2]): 3.7 µM; IC50 (PANC-1): 0.8 µM; IC50 (AsPC-1): 15.2 µM; IC50 (SKOV-3): 3.6 µM; change of CSt-like-C population (MCF7 [3]; MCF7): increased; cells harvested (MCF7 [3]; after culture of 3×10^6 MCF-7 cells): 1.6 ×10^6; change of CSt-C (CSt-like-C) population (MIA-PaCa-2 [4]; MIA-PaCa-2): increased; % CD44hi CD24- in ESA+ cells (MIA-PaCa-2 [4]; [9]): 0.2%; % CD44hi CD24hi in ESA+ cells (MIA-PaCa-2 [4]; [9]): 7.1%; % CD44hi CD24low in ESA+ cells (MIA-PaCa-2 [4]; [9]): 19.8%; % CSt-like-C (MIA-PaCa-2 [4]; [9]): 16.4%; % ESA+ (MIA-PaCa-2 [4]; [9]): 83.0%; number of cells expressing MICA and MICB in drug-resistant cells (MIA-PaCa-2 [5]): increased; cells harvested (MIA-PaCa-2 [6]): 3.4 ×10^6 cells
DLL4: recombinant human Delta-like protein 4, soluble Notch ligand | – | – | – | – | – | – | – | – | – | – | – | – | – | – | – | expansion of CD44+ CD24low cells compared with medium (MCF7 cells; DLL4-activation of GEMRes cells): 2-3 fold; CD44hi CD24hi (% of cells) (MCF7 cells; MCF7): 36.4%; CD44hi CD24hi (cell number) (MCF7 cells; MCF7): 6.84; CD44hi CD24low (% of cells) (MCF7 cells; MCF7): (3.5%); CD44hi CD24low (cell number) (MCF7 cells; MCF7): 0.66 × 10^6; ratio CD44hi CD24hi to CD44hi CD24low (MCF7 cells; MCF7): 10.4; Stimulation Index (MCF7 cells; MCF7, harvested/seeded): 6.27; Harvested cells (MCF7 cells; MCF7, seeded 3.0 x 10^6): *18.80 10^6
LPL TPLPVGL [AES1] | 0.19% | 0.23% | 0.23% | – | – | – | – | – | – | – | – | – | – | – | – | –
RLLDEYNLV (listed as Homo sapiens) [Notch1-2112] | 0.26% | 0.24% | 0.28% | 0.17% | 2.09* % | 0.35% | 0.08% | 0.43% | 0.28% | 0.08% | 0.88% | 0.34* % | 0.17% | 2.52% | 0.36% | TCRmed cells relative to base-line NP dimers ([7]; Patient 4): 2.61 times; TCRmed cells relative to base-line control dNP ([7]; Patient 5): 1.63 times; patients with activated CD8+ Perforin+ cells expressing TCR specific for the peptide [7]: two of five
RLLEASADA (listed as Homo sapiens) [Notch1-1947, used as specificity control] | – | – | – | 0.10% | 0.99% | 0.32% | 0.10% | 0.65% | 0.24% | 0.22% | 0.53% | 0.26% | 0.14% | 1.98% | 0.26% | –
VLWVSADGL (listed as Homo sapiens) [Numb1-87] | 0.64* % | 0.51% | 0.66* % | 0.16% | 2.76* % | 0.46% | 0.09% | 0.50% | 0.21% | 0.22% | 0.53% | 0.26% | 0.27* % | 1.84% | 0.27% | TCRhi CD8+ cells relative to cells reactive with control dNP dimers ([7]; Patient 5): 2.45 times; increase in numbers of TCRhi Perhi cells compared with Notch1-2112 dimer ([7]; TAL-1, FIG. 4): 3.3 fold; amount of Perforin in peptide-TCR+ cells ([7]; TAL-1, FIG. 4G): highest amount of Perforin; increase in numbers of TCR+ cells ([7]; TAL-2, large-size lymphocytes, FIG. 5H): 3 fold; patients with activated CD8+ Perforin+ cells expressing TCR specific for the peptide [7]: three of five
recombinant human Delta-like protein 4 (from UniProt Q9NR61 27-524) (ligand) | – | – | – | – | – | – | – | – | – | – | – | – | – | – | – | Harvested cells: 10^6 (MCF7, DLL4, no GEM; NT control 12.96) [8]: 1.88e+07 cells; Harvested cells: 10^6 (MCF7, DLL4 with GEM; GEM alone 1.32) [8]: 2.16e+06 cells; Stimulation Index (proliferation of MCF7 cells, DLL4, no GEM; NT control 4.32) [8]: 6.27; Stimulation Index (proliferation of MCF7 cells, DLL4 with GEM; GEM alone 0.44) [8]: 0.72; increase in total cell number at stimulation with DLL4 [8]: > 45%
